Assay results reported in PMC7026418, “The kinase polypharmacology landscape of clinical PARP inhibitors” (Scientific Reports, 2020).
Like-named read-outs stand apart in the source and are kept apart here. Each block holds one compound with its values, some of them ahead of it.

Tests used:
Experiment in all cases: biochemical
Design in all cases: DiscoveRx KINOMEscan active site-directed competition binding; percent of control kinase bound to immobilised ligand
FLT3(R834Q) = target: T1, FLT3(R834Q) (Homo sapiens, UniProt P36888, R834Q)
T1 sequence (P36888 1-993 R834Q): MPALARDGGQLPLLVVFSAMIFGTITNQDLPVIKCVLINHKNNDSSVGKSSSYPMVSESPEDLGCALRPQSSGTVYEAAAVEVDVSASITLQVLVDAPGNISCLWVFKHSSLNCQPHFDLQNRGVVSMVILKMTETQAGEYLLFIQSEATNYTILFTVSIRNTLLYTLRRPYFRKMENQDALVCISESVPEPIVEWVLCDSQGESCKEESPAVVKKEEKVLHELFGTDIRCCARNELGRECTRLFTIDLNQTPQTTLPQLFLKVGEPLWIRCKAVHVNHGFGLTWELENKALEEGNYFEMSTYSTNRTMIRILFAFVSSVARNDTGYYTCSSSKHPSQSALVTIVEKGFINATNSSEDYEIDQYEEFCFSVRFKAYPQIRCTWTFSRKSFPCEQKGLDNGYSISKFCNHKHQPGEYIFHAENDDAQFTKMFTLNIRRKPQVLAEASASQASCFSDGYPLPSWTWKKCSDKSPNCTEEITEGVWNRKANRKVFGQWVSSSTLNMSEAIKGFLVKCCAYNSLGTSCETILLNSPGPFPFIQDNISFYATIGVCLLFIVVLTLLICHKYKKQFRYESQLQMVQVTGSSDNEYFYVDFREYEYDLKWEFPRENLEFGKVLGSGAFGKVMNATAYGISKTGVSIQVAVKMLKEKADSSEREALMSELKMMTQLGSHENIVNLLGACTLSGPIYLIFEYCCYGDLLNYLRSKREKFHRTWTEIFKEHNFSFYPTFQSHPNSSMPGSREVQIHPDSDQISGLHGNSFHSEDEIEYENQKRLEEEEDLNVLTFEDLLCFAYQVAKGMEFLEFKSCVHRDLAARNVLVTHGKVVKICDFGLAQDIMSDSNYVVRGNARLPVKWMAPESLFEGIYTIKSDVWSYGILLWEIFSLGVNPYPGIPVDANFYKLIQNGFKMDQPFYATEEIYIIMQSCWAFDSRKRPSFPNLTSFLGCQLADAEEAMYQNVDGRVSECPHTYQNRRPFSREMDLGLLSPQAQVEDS

TRKC = target: T2, TRKC (Homo sapiens, UniProt Q16288)
T2 construct: gene NTRK3
T2 sequence (Q16288 whole entry): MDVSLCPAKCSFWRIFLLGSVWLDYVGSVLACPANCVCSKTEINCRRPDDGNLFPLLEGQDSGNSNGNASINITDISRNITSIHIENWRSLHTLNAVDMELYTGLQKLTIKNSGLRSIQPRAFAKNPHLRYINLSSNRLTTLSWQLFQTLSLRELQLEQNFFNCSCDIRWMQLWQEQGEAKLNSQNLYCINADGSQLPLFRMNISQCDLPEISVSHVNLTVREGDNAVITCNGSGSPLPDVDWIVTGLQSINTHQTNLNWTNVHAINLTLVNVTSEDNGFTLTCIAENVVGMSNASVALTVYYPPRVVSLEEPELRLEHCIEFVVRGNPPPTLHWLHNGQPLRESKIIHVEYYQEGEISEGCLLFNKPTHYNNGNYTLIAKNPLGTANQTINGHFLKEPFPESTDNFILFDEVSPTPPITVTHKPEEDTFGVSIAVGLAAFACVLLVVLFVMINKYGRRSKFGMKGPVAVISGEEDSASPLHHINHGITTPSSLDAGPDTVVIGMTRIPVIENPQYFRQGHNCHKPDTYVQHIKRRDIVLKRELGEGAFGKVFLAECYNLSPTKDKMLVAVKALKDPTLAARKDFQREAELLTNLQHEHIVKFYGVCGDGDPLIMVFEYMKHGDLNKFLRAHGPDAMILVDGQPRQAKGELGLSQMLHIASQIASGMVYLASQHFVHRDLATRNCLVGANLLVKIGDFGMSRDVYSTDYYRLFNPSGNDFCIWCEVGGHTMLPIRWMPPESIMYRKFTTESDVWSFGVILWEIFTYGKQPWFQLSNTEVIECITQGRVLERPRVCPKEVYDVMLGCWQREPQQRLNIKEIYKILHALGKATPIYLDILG

MYLK4 = target: T3, MYLK4 (Homo sapiens, UniProt Q86YV6)
T3 sequence (Q86YV6 1-388): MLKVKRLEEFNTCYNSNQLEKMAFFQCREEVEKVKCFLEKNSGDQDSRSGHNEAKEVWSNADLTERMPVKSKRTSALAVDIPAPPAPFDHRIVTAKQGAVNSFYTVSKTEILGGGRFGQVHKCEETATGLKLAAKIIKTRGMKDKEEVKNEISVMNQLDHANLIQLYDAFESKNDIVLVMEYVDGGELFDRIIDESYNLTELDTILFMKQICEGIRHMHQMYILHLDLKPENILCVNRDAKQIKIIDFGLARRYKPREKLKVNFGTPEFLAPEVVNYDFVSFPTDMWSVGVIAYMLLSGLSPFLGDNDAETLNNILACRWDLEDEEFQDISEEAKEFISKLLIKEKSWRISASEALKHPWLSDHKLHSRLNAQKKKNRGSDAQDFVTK

LATS1 = target: T4, LATS1 (Homo sapiens, UniProt O95835)
T4 sequence (O95835 1-1130): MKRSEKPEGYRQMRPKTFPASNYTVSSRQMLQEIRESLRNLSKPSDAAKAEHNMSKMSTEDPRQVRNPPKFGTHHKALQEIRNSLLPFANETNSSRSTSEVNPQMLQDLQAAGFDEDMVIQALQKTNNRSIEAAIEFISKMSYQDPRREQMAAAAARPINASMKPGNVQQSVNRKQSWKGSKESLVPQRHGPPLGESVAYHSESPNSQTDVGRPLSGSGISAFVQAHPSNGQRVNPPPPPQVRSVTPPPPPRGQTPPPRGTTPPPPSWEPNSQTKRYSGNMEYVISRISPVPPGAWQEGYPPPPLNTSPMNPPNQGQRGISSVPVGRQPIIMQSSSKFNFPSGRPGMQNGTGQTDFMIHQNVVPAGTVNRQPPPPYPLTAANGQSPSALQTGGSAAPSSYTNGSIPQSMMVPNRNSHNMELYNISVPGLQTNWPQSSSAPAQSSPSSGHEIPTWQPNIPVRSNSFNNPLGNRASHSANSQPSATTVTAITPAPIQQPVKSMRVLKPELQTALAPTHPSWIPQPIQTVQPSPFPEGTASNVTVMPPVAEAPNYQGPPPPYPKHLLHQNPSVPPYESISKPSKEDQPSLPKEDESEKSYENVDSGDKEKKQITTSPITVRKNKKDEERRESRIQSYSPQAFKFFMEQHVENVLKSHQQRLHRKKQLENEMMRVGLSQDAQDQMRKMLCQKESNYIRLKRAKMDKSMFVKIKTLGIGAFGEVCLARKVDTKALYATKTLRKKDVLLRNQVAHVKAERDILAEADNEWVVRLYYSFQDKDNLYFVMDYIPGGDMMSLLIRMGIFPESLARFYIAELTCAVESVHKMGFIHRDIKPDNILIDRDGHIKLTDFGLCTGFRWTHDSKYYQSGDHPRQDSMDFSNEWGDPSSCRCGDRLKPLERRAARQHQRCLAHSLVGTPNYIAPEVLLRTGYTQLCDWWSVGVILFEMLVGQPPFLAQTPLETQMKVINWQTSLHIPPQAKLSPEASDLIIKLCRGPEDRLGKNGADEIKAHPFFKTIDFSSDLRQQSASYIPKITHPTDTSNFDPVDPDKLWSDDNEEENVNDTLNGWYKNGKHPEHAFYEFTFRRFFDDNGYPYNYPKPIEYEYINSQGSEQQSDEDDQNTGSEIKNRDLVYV

EGFR(L747-T751del,Sins) = EGFR(L747-T751del,Sins) (Homo sapiens, UniProt P00533, DEL747-750/T751S)
EGFR(L747-T751del,Sins), sequence (P00533 with tags, fused parts or gaps DEL747-750/T751S): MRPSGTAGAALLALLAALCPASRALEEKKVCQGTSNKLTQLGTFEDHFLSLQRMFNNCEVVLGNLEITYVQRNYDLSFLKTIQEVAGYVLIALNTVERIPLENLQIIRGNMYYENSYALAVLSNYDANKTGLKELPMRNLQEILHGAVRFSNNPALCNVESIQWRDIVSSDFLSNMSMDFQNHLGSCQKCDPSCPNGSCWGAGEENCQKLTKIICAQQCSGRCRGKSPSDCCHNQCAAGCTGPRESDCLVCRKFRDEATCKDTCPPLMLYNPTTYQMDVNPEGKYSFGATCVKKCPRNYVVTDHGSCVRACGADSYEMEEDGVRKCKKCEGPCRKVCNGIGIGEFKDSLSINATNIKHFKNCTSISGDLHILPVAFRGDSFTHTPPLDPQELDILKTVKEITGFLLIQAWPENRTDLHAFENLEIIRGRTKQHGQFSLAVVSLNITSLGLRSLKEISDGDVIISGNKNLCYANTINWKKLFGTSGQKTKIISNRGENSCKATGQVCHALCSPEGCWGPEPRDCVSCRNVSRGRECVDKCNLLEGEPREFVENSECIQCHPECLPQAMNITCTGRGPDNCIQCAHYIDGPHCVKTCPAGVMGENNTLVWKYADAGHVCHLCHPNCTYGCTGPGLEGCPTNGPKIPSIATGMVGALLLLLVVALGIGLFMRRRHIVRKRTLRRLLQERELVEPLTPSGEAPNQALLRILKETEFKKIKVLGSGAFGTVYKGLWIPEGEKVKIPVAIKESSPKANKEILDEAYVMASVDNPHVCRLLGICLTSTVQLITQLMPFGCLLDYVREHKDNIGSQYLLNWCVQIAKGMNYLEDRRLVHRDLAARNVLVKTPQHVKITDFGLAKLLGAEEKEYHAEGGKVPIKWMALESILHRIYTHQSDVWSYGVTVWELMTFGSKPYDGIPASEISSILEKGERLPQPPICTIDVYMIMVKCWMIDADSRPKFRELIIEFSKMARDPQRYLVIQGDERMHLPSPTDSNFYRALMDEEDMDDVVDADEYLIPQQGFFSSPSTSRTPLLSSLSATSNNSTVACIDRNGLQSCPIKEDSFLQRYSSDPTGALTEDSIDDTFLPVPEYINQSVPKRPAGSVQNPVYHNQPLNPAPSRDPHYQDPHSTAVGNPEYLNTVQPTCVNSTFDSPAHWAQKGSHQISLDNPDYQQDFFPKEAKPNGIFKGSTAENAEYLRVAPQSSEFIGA

[1] = read-out: Olaparib / %Ctrl @ 10000nM
[2] = read-out: Talazoparib (BMN 673) / %Ctrl @ 10000nM
[3] = read-out: Rucaparib / %Ctrl @ 10000nM, binding competition, % of control
[4] = read-out: Niraparib (MK-4827) / %Ctrl @ 10000nM

percent of control binding at 10 µM (FLT3(R834Q); [1]): 79%
percent of control binding at 10 µM (TRKC; [1]): 92%
percent of control binding at 10 µM (MYLK4; [1]): 92%
percent of control binding at 10 µM (LATS1; [1]): 78%
percent of control binding at 10 µM (EGFR(L747-T751del,Sins); [1]): 81%
SMILES: O=C(c1cc(Cc2n[nH]c(=O)c3ccccc23)ccc1F)N1CCN(C(=O)C2CC2)CC1 [Olaparib]

percent of control binding at 10 µM (FLT3(R834Q); [2]): 100%
percent of control binding at 10 µM (TRKC; [2]): 100%
percent of control binding at 10 µM (MYLK4; [2]): 90%
percent of control binding at 10 µM (LATS1; [2]): 92%
percent of control binding at 10 µM (EGFR(L747-T751del,Sins); [2]): 89%
SMILES: Cn1ncnc1[C@H]1c2n[nH]c(=O)c3cc(F)cc(c23)N[C@@H]1c1ccc(F)cc1 [Talazoparib]

Rucaparib / %Ctrl @ 10000nM (FLT3(R834Q); binding competition, % of control): 81%
percent of control binding at 10 µM (TRKC; [3]): 88%
percent of control binding at 10 µM (MYLK4; [3]): 1.3%
percent of control binding at 10 µM (LATS1; [3]): 75%
percent of control binding at 10 µM (EGFR(L747-T751del,Sins); [3]): 86%
SMILES: CNCc1ccc(-c2[nH]c3cc(F)cc4c3c2CCNC4=O)cc1 [Rucaparib]

SMILES: NC(=O)c1cccc2cn(-c3ccc([C@@H]4CCCNC4)cc3)nc12 [Niraparib]
percent of control binding at 10 µM (FLT3(R834Q); [4]): 100%
percent of control binding at 10 µM (TRKC; [4]): 95%
percent of control binding at 10 µM (MYLK4; [4]): 20%
percent of control binding at 10 µM (LATS1; [4]): 36%
percent of control binding at 10 µM (EGFR(L747-T751del,Sins); [4]): 90%
